Target: YAP-TEAD protein interaction (His-TEAD1 (209-426) protein, Bio-YAP peptide (60-100)) (Homo sapiens, UniProt P28347)
Test: YAP-TEAD protein interaction HTRF experiment
Type: binding
Details: His-TEAD1 (209-426) 10 nM, Bio-YAP peptide 50 nM, read-out: Activity of each compound in blocking YAP-TEAD protein interaction (grades of IC50 values)
Description: In this example, the YAP-TEAD protein interaction HTRF experiment was used to detect the activity of each compound in blocking the YAP-TEAD protein interaction.
The experiment was carried out according to the following operation steps:
Step 1: His-TEAD1 (209-426) protein was added to a 384-well detection white plate to a final concentration of 10 nM, and buffer was used as the background signal well. The compounds to be tested were subjected to 3-fold dilution and a total of 10 concentration gradients were set up, and each diluted solution was mixed well. A certain volume of the compound to be tested was added to each well separately, 2 replicates were set for each concentration, and the final concentration of DMSO was controlled at 1%. Incubation was carried out at room temperature for 20 minutes. The amino acid sequence of TAED1 (209-426) used in this step is shown in SEQ ID NO: 1:
After mixing evenly, the mixture was incubated at room temperature for 10 minutes.
Step 3: Anti-His-Eu cryptate gold and streptavidin-XL665 were diluted according to the instructions and mixed in equal proportions. A certain volume of the detection reagent was added to the well, and the mixture was incubated at room temperature for 1 hour.
Step 4: The signal was detected using an Envision (Perkin Elmer) microplate reader at an excitation wavelength of 320 nm and emission wavelengths of 665 nm and 620 nm.
Step 5: The signal was calculated based on the ratio of Em665/Em620*10000.
The inhibition percentage (%) was calculated using the following formula: […]
The half-maximal inhibitory concentration (IC50) values were calculated using GraphPad Prism software.

Chain of YAP-TEAD protein interaction (His-TEAD1 (209-426) protein, Bio-YAP peptide (60-100)) (P28347 209-426): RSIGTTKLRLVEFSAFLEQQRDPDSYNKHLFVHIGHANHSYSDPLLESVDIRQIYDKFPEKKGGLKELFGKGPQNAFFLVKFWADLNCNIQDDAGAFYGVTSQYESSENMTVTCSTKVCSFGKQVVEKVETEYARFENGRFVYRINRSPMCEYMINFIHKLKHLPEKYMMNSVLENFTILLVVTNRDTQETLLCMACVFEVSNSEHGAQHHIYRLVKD

Row | IC50 [µM] | Compound
1 | < 0.05 | NC(=O)c1cc2c(c(F)c1-c1c(Cl)c(F)cc3c1C[C@](c1ccccc1)([C@@H]1CCCN1)O3)OC(CO)CO2 (stereo partly drawn) [Compound I-53, (S)-7-((S)-5-Chloro-6-fluoro-2-phenyl-2-((S)-pyrrolidin-2-yl)-2,3-dihydrobenzofuran-4-yl)-8-fluoro-2-(hydroxymethyl)-2,4-dihydrobenzo[b][1,4] dioxoine-6-carboxamide]
2 | < 0.05 | CNC(=O)c1cc2c(c(F)c1-c1c(Cl)c(F)cc3c1C[C@](c1ccccc1)([C@@H]1CCCN1)O3)OCCN2 (atropisomer, axis not shown) [Compound I-26, (S)-7-((2S)-5-Chloro-6-fluoro-2-phenyl-2-((S)-pyrrolidin-2-yl)-2,3-dihydrobenzofuran-4-yl)-8-fluoro-N-methyl-3,4-dihydro-2H-benzo[b][1,4]oxazine-6-carboxamide]
3 | 0.5 to 5 | Cn1cc2c(n1)COc1c-2cc(C(N)=O)c(-c2c(Cl)c(F)cc3c2C[C@](c2ccccc2)([C@@H]2CC(O)CN2)O3)c1F (stereo partly drawn) [Compound 55, (7S)-7-((2S)-5-Chloro-6-fluoro-2-((2S)-4-hydroxypyrrolidin-2-yl)-2-phenyl-2,3-dihydrobenzofuran-4-yl)-6-fluoro-2-methyl-2,4-dihydrochromeno[3,4-c]pyrazole-8-carboxamide]
4 | 0.05 to 0.5 | NC(=O)c1cc2c(c(F)c1-c1c(Cl)c(F)cc3c1C[C@](c1ccccc1)([C@@H]1CCCN1)O3)OCCO2 [Compound 1′, 7-((2S,4R)-5-Chloro-6-fluoro-2-phenyl-2-((S)-pyrrolidin-2-yl)-2,3-dihydrobenzofuran-4-yl)-8-fluoro-2,3-dihydrobenzo[b][1,4]dioxine-6-carboxamide]
5 | < 0.05 | CNC[C@@]1(c2ccccc2)Cc2c(cc(F)c(Cl)c2-c2c(C(N)=O)cc3c(ccn3C)c2F)O1 (atropisomer, axis not shown) [Compound I-2, (S)-5-((S)-5-Chloro-6-fluoro-2-((methylamino)methyl)-2-phenyl-2,3-dihydrobenzofuran-4-yl)-4-fluoro-1-methyl-1H-indole-6-carboxamide]
6 | < 0.05 | NC(=O)c1cc2c(c(F)c1-c1c(Cl)c(F)cc3c1C[C@](c1ccccc1)([C@@H]1CCCN1)O3)OC(CO)C2 (stereo partly drawn) [Compound I-52, (2S,6′S)-5-Chloro-6,7′-difluoro-2′-(hydroxymethyl)-2-phenyl-2-((S)-pyrrolidin-2-yl)-2,2′,3,3′-tetrahydro-[4,6′-bibenzofuran]-5′-carboxamide]
7 | < 0.05 | NC(=O)c1cc2c(c(F)c1-c1c(Cl)c(F)cc3c1C[C@](c1ccccc1)([C@@H]1CCCN1)O3)OCCOC2 (atropisomer, axis not shown) [Compound I-54, (S)-8-((S)-5-Chloro-6-fluoro-2-phenyl-2-((S)-pyrrolidin-2-yl)-2,3-dihydrobenzofuran-4-yl)-9-fluoro-2,3-trihydro-5H-benzo[e][1,4]dioxa-7-carboxamide]
8 | 0.05 to 0.5 | Cc1nnc2n1-c1cc(C(N)=O)c(-c3c(Cl)c(F)cc4c3C[C@](c3ccccc3)([C@@H]3CCCN3)O4)c(F)c1OC2 (atropisomer, axis not shown) [Compound 43, (S)-7-((S)-5-Chloro-6-fluoro-2-phenyl-2-((S)-pyrrolidin-2-yl)-2,3-dihydrobenzofuran-4-yl)-6-fluoro-1-methyl-4H-benzo[b][1,2,4]triazolo[4,3-d][1,4]oxazine-8-carboxamide]
9 | < 0.05 | NC(=O)c1cn2ccnc2c(F)c1-c1c(Cl)c(F)cc2c1C[C@](c1ccccc1)([C@@H]1CCCN1)O2 (atropisomer, axis not shown) [Compound I-11, (S)-7-((S)-5-Chloro-6-fluoro-2-phenyl-2-((S)-pyrrolidin-2-yl)-2,3-dihydrobenzofuran-4-yl)-8-fluoroimidazo[1,2-a]pyridine-6-carboxamide]
10 | < 0.05 | NC(=O)c1cc2c(c(F)c1-c1c(Cl)c(F)cc3c1C[C@](c1ccccc1)([C@@H]1CCCN1)O3)[C@@H](O)CC2 (atropisomer, axis not shown) [Compound I-57, (1S,6S)-6-((S)-5-Chloro-6-fluoro-2-phenyl-2-((S)-pyrrolidin-2-yl)-2,3-dihydrobenzofuran-4-yl)-7-fluoro-1-hydroxy-2,3-dihydro-1H-indene-5-carboxamide]
11 | 0.05 to 0.5 | Cn1cc2c(n1)COc1c-2cc(C(N)=O)c(-c2c(Cl)c(F)cc3c2C[C@](c2ccccc2)([C@@H]2CCCN2)O3)c1F (atropisomer, axis not shown) [Compound 3′, (R)-7-((S)-5-Chloro-6-fluoro-2-phenyl-2-((S)-pyrrolidin-2-yl)-2,3-dihydrobenzofuran-4-yl)-6-fluoro-2-methyl-2,4-dihydrochromeno[3,4-c]pyrazole-8-carboxamide]
12 | 0.05 to 0.5 | NC(=O)c1cc2c(c(F)c1-c1c(Cl)c(F)cc3c1C[C@](c1ccccc1)([C@@H]1CCCN1)O3)[C@H](O)CC2 (atropisomer, axis not shown) [Compound I-58, (1R,6S)-6-((S)-5-Chloro-6-fluoro-2-phenyl-2-((S)-pyrrolidin-2-yl)-2,3-dihydrobenzofuran-4-yl)-7-fluoro-1-hydroxy-2,3-dihydro-1H-indene-5-carboxamide]
13 | < 0.05 | CNC(=O)c1cc2c(c(F)c1-c1c(Cl)c(F)cc3c1C[C@](c1ccccc1)([C@@H]1CCCN1)O3)OC(CO)CO2 (stereo partly drawn) [Compound I-56, (S)-7-((S)-5-Chloro-6-fluoro-2-phenyl-2-((S)-pyrrolidin-2-yl)-2,3-dihydrobenzofuran-4-yl)-8-fluoro-2-(hydroxymethyl)-N-methyl-2,3-dihydrobenzo[b][1,4] dioxoine-6-carboxamide]
14 | > 5 | [2H]c1c([2H])c([2H])c([C@]2([C@@H]3CCCN3)Cc3c(cc(F)c(Cl)c3-c3c(C(N)=O)cc4c(c3F)OCc3nn(C)cc3-4)O2)c([2H])c1[2H] (atropisomer, axis not shown) [Compound 117, (S)-7-((S)-5-Chloro-6-fluoro-2-(phenyl-d5)-2-((S)-pyrrolidin-2-yl)-2,3-dihydrobenzofuran-4-yl)-6-fluoro-2-methyl-2,4-dihydrochromeno[3,4-c]pyrazole-8-carboxamide]
15 | < 0.05 | NC(=O)c1cc2c(c(F)c1-c1c(Cl)c(F)cc3c1C[C@](c1ccccc1)([C@@H]1CCCN1)O3)OCC2 (atropisomer, axis not shown) [Compound I-31, (2S,4S)-5-Chloro-6,7′-difluoro-2-phenyl-2-((S)-pyrrolidin-2-yl)-2,2′,3,3′-tetrahydrofuran-[4,6′-bibenzofuran]-5′-carboxamide]
16 | < 0.05 | NC(=O)c1cc2c(c(F)c1-c1c(Cl)c(F)cc3c1C[C@](c1ccccc1)([C@@H]1CCCN1)O3)Oc1c(cnn(C3COC3)c1=O)O2 (atropisomer, axis not shown) [Compound 145, (S)-8-((S)-5-Chloro-6-fluoro-2-phenyl-2-((S)-pyrrolidin-2-yl)-2,3-dihydrobenzofuran-4-)-9-fluoro-2-(oxetan-3-yl)-1-oxo-1,2-dihydrobenzo[5,6][1,4]dioxo [2,3-d]pyridazine-7-carboxamide]
17 | < 0.05 | CNC(=O)c1cc2c(c(F)c1-c1c(Cl)c(F)cc3c1C[C@](c1ccccc1)([C@@H]1CCCN1)O3)[C@@H](O)CC2 (atropisomer, axis not shown) [Compound I-59, (1S,6S)-6-((S)-5-Chloro-6-fluoro-2-phenyl-2-((S)-pyrrolidin-2-yl)-2,3-dihydrobenzofuran-4-yl)-7-fluoro-1-hydroxy-N-methyl-2,3-dihydro-1H-indene-5-carboxamide]
18 | 0.05 to 0.5 | CNC(=O)c1cc2c(c(F)c1-c1c(Cl)c(F)cc3c1C[C@](c1ccccc1)([C@@H]1CCCN1)O3)[C@H](O)CC2 (atropisomer, axis not shown) [Compound I-60, (1R,6S)-6-((S)-5-Chloro-6-fluoro-2-phenyl-2-((S)-pyrrolidin-2-yl)-2,3-dihydrobenzofuran-4-yl)-7-fluoro-1-hydroxy-N-methyl-2,3-dihydro-1H-indene-5-carboxamide]
19 | < 0.05 | N#CCC1Cc2cc(C(N)=O)c(-c3c(Cl)c(F)cc4c3C[C@](c3ccccc3)([C@@H]3CCCN3)O4)c(F)c2O1 (stereo partly drawn) [Compound I-55, (2S)-5-Chloro-2′-(cyanomethyl)-6,7′-difluoro-2-phenyl-2-((S)-pyrrolidin-2-yl)-2,2′,3,3′-tetrahydro-[4,6′-bibenzofuran]-5′-carboxamide]
20 | 0.05 to 0.5 | NC(=O)c1cc2c(c(F)c1-c1c(Cl)c(F)cc3c1C[C@](c1ccccc1)([C@@H]1CCCN1)O3)Oc1ncnc(N)c1O2 (atropisomer, axis not shown) [Compound 113, (S)-4-Amino-8-((S)-5-chloro-6-fluoro-2-phenyl-2-((S)-pyrrolidin-2-yl)-2,3-dihydrobenzofuran-4-yl)-9-fluorobenzo[5,6][1,4]dioxo [2,3-d]pyrimidine-7-carboxamide]

Reference: patent publication US20250177408A1, “INHIBITOR OF INTERACTION BETWEEN YAP/TAZ AND TEAD, PREPARATION THEREOF, PHARMACEUTICAL COMPOSITION THEREOF AND USE THEREOF” (ETERN BIOPHARMA (SHANGHAI) CO., LTD., priority 2022, published 2025)
